In patent US9987242B2, “Treatment of Levodopa-induced Dyskinesias” (NORTHWESTERN UNIVERSITY, priority 2015, dated 2018):
“Also recorded” adds a separate entry of the source.

Key:
[1] = tested on: NMDAR-mediated currents in dSPNs; experiment: NMDAR-mediated uEPSCs and EPSCs in dSPNs, whole-cell voltage clamp; type: cell-based, mice; conditions: muscarine 3 μM; local electrical stimulation
Method: For whole-cell voltage clamp recordings, patch pipettes were loaded with internal recording solution containing (mM): 120 CsMeSO3, 15 CsCl, 8 NaCl, 10 HEPES, 0.2 EGTA, 10 tetraethylammonium Chloride (TEA-Cl), 5 QX-314, 2 Mg-ATP, 0.3 Na-GTP; pH was adjusted to 7.25 with CsOH and osmolarity to ˜305 mOsm l^−1. All the recordings were made using a MultiClamp 700 A amplifier, and signals were filtered at 2 kHz and digitized at 10 kHz. Data were excluded when the series resistance changed >20% over the time course of the experiment. For perforated patch recordings, the internal recording solution comprised (in mM): 125 KMeSO4, 14 KCl, 2 MgCl2, 0.2 EGTA, 10 HEPES; pH was adjusted to 7.25 with NaOH and osmolarity to ˜280 mOsm l^−1. Amphotericin B was used to achieve electrical access through the perforated-patch method (Shen et al., 2007; 2008; herein incorporated by reference in their entireties). Capacitance current was continuously monitored during perforation by applying a 5-10 mV pulse from a holding potential of −70 mV. The amplifier bridge circuit was adjusted to compensate for series resistance and continuously monitored during recordings. Electrode capacitance was also compensated. Data were excluded when the input resistance (Ri) changed >20% over the time course of the experiment.
Glutamate uncaging was achieved using a Verdi/Mira (Coherent Laser Group, Santa Clara, Calif.) (Plotkin et al., 2014). 5 mM MNI-glutamate was superfused over the slice at 0.4 ml/hr using a syring pump and multi-barreled perfusion manifold (Cell MicroControls, Norfolk, Va.). The perfusion solution was (in mM): 124 NaCl, 3 KCl, 2 CaCl2, 1 NaH2PO4, 26 HEPES and 16.66 glucose, and also contained (in μM): 3 muscarine, 10 serine, 10 NBQX and 10 gabazine, plus or minus: 3 SKF81297 and/or 5 VU10010). Glutamate was uncaged adjacent to individual spines using 1 ms pulses of 720-725 nm light typically 10-20 mW in power at the sample plane. Photolysis power was tuned via a third Pockels cell modulator (Con Optics, Danbury, Conn.) to achieve uEPSCs≤5 pA. uEPSC amplitudes were measured from averaged (3-5 repetitions) traces. All uncaging experiments were performed in 0 mM Mg^2+-containing solutions.
To determine the situation in dSPNs, the effect of muscarine and VU10010 on NMDAR-mediated EPSCs evoked by uncaging glutamate on spine heads (uEPSCs) was examined in the presence of SKF81297.

L-DOPA-induced AIMs = experiment: Abnormal involuntary movement (AIM) scoring in unilateral 6-OHDA lesioned mice with L-DOPA-induced dyskinesia; type: in vivo
Method: (§1) After LID induction, mice were treated with either L-DOPA or L-DOPA and VU152100 (20-120 mg/kg, i.p.) on days 6-8; VU152100 is an M4R PAM with improved pharmacokinetic properties than VU10010.

forelimb use asymmetry = experiment: Forelimb-use asymmetry test (cylinder test) in 6-OHDA lesioned mice; type: in vivo; conditions: for forelimb use asymmetry: n=9
Method: as §1

[2] = tested on: phosphorylated ERK1/2 and phosphorylated histone 3; experiment: Cells immunoreactive for pERK1/2 and pH3 in the dorsolateral striatum of LID mice; type: in vivo
Method: as §1

[3] = tested on: dSPN glutamatergic synapses; experiment: Spike-timing-dependent LTD induction (post-pre pairing) in dSPNs, ex vivo corticostriatal slices, perforated-patch or whole-cell recording; type: cell-based, mice
Source text: Male C57Bl/6 and FVB mice expressing tdTomato or eGFP under control of either the Drd1 or Drd2 receptor regulatory elements were used. All the mice used for the study were hemizygous for these transgenes. For some experiments, D1-tdTomato BAC mice were crossed with a transgenic line expressing Cre recombinase under control of the ChAT promoter. All mice were 8-10 weeks of age before stereotaxic surgery. Animal use procedures were reviewed and approved by the Northwestern Institutional Animal Care and Use Committee.
Slices were then transferred to a holding chamber containing aCSF. After an incubation period at 34° C. for 30 min, the slices were then kept in the holding chamber at the room temperature for another 30 min before use.
Individual slices were transferred to a recording chamber and were continuously perfused (2-3 ml min^−1) with aCSF for the duration of the experiment. Experiments were performed in the dorsolateral striatum at elevated temperature (30-31° C.).
All the recordings were made using a MultiClamp 700 A amplifier, and signals were filtered at 2 kHz and digitized at 10 kHz. Data were excluded when the series resistance changed >20% over the time course of the experiment. […] Capacitance current was continuously monitored during perforation by applying a 5-10 mV pulse from a holding potential of −70 mV. The amplifier bridge circuit was adjusted to compensate for series resistance and continuously monitored during recordings. Electrode capacitance was also compensated. Data were excluded when the input resistance (Ri) changed >20% over the time course of the experiment.
Data analysis was conducted with Igor Pro 6 (Wavemetrics, Lake Oswego, Oreg.) and Clampfit 9 (Molecular Devices). EPSP amplitude was calculated from 50-60 sweeps immediately before the start of induction and 20-30 min after the end of induction. The change in EPSP amplitude was calculated by averaging EPSP values after the induction and normalized to the average baseline EPSP amplitude. Compiled data were expressed as mean±s.e.m. Statistical tests were performed using Excel (Microsoft, Redmond, Wash.) and SigmaStat (Systat, San Jose, Calif.). Non-parametric Mann-Whitney or Wilcoxon tests were used to assess the experiment results, using a probability threshold of 0.05.
To determine if M4Rs were modulating synaptic plasticity, a spike-timing-dependent plasticity (STDP) paradigm was used. […] Once identified, neurons were monitored and controlled with perforated-patch recording to preserve intracellular signaling mechanisms and to allow stable, long-term monitoring of synaptic strength (FIG. 1A).
Synaptic plasticity was induced by pairing local stimulation of glutamatergic afferent fibers with postsynaptic spikes evoked by short bursts of intracellular current injection that were repeated at 5 Hz (FIGS. 1B, 4A).

[4] = tested on: dSPN glutamatergic synapses; experiment: Spike-timing-dependent LTP induction (pre-post pairing) in dSPNs, ex vivo slices; type: cell-based, mice
iSPN synapses = experiment: Pre-post pairing protocol in iSPNs from 6-OHDA lesioned, L-DOPA treated mice; conditions: 6-OHDA lesioned mice shortly after L-DOPA treatment
[5] = tested on: ChIs expressing DREADD hM3D(q); experiment: Discharge rate of DREADD hM3D(q)-expressing cholinergic interneurons, cell-attached patches in slices; type: cell-based, mice
Source text: To determine the importance of endogenous cholinergic signaling in regulating synaptic plasticity, the discharge rate of ChIs was elevated using a Cre-dependent DREADD (Alexander et al., 2009; Armbruster et al., 2007; Ferguson et al., 2011; Kozorovitskiy et al., 2012; herein incorporated by reference in their entireties). Briefly, bi-transgenic mice expressing tdTomato in dSPNs and Cre-recombinase under control of the choline acetyltransferase (ChAT) promoter received striatal stereotaxic injections of an adeno-associated virus (AAV; serotype 2/8) containing the hM3D(q) expression construct (the University of North Carolina Vector Core). Mice were allowed to recover for 5-6 weeks before recordings. To activate the DREADD expressing ChIs, clozapine-N-oxide (CNO) was bath applied to ex vivo brain slice preparations.
To address the possibility that in an ex vivo slice preparation at 30-31° C., spontaneous ChI activity is low and could lead to effective enzymatic degradation of ACh near its release site and weak M4R activation, the ACh esterase inhibitor physostigmine (10 μM) was co-applied with the M4R PAM. […] Another way to compensate for lower than normal cholinergic signaling in ex vivo slices is to use designer receptors exclusively activated by designer drugs (DREADDs) to selectively increase ChI discharge rate (Alexander et al., 2009; Armbruster et al., 2007; herein incorporated by reference in their entireties). To this end, bi-transgenic mice expressing tdTomato in dSPNs and Cre-recombinase under control of the choline acetyltransferase (ChAT) promoter received striatal injections of an adeno-associated virus (AAV) containing an hM3D(q) expression construct having an upstream foxed STOP codon; this STOP codon is effectively excised by Cre-recombinase leading to DREADD expression (Ferguson et al., 2011; Kozorovitskiy et al., 2012; herein incorporated by reference in their entireties) (FIG. 2A). […]

[6] = VU152100 co-administered with L-DOPA vs L-DOPA

`C[C@@H]1O[C@H](C[N+](C)(C)C)C[C@H]1O` [muscarine] was tested. Which “amplitudes of NMDAR-mediated EPSCs” value [1] did it give?
The value was “reduced the amplitudes”.

For `COc1ccc(CNC(=O)c2sc3nc(C)cc(C)c3c2N)cc1` [VU152100], which “cumulative AIM scores” value (L-DOPA-induced AIMs; VU152100 60 mg/kg systemic, with L-DOPA) is on record?
The value was “significantly reduced cumulative AIM scores”.

And the “anti-dyskinetic effect on doubling the dose” value (L-DOPA-induced AIMs; VU152100 120 mg/kg, with L-DOPA)?
The value was “did not increase the anti-dyskinetic effect”.

And the “AIM scores, dose relation” value (L-DOPA-induced AIMs; VU152100 20, 60, 120 mg/kg)?
The value was “dose-dependent effect”.

What about the “L-DOPA-induced AIM scores” value (L-DOPA-induced AIMs; VU152100 20-120 mg/kg i.p. with L-DOPA, days 6-8) of the same molecule?
The value was “significantly attenuated”.

What about the forelimb use asymmetry (forelimb use asymmetry; L-DOPA+VU152100, p>0.05 vs L-DOPA) of the same molecule?
Its forelimb use asymmetry is 38.6±3.04.

And the “effect on anti-parkinsonian action of L-DOPA (forelimb use asymmetry)” value (forelimb use asymmetry; VU152100 co-administered with L-DOPA)?
The value was “did not occur at the expense of the anti-parkinsonian action of L-DOPA”.

What about the “level of phosphorylated ERK (pERK)” value ([2]; VU0152100 60 mg kg-1) of the same molecule?
The value was “reduced the levels of LID biomarkers”.

And the “level of phosphorylated histone3 (pH3)” value ([2]; VU0152100 60 mg kg-1)?
The value was “reduced the levels of LID biomarkers”.

And the “number of cells immunoreactive for phosphorylated ERK1/2 (pERK1/2)” value [2, 6]?
Its value is “reduced the number of cells; also recorded: reduced expression”.

And the “number of cells immunoreactive for phosphorylated histone 3 (pH3)” value [2, 6]?
The value was “reduced the number of cells; also recorded: reduced expression”.

For `CCN1CCCC1CNC(=O)c1cc(S(N)(=O)=O)ccc1OC` (stereo not drawn) [sulpiride], which “LTD induction in dSPNs” value ([3]; sulpiride 10 μM with physostigmine 10 μM and VU10010 5 μM) is on record?
The value was “LTD was induced”.

With `CCCCn1c(=O)sn(CC)c1=O` [CCG203769] as the molecule, how does the “LTD induction in dSPNs” value ([3]; CCG203769 10 μM intracellular, without VU10010) read?
Its value is “enhanced induction of LTD; also recorded: promoted the induction of LTD”.

What about the “LTD induction in dSPNs” value ([3]; CCG203769 with VU+PHY+MT3 (M4R antagonized)) of the same molecule?
Its value is “antagonizing M4Rs had no effect on dSPN LTD”.

What about the “LTD induction in dSPNs” value ([3]; CCG203769 with VU+PHY+MT3 (M4R antagonized), listed as CCG) of the same molecule?
Its value is “enhanced LTD induction”.

Which “LTD induction in dSPNs” value ([3]; APV 50 μM with VU10010 5 μM) does the source give for `N[C@@H](CCCP(=O)(O)O)C(=O)O` [APV] here?
Its value is “LTD was inducible”.

With `N[C@@H](Cc1ccc(O)c(O)c1)C(=O)O` [L-DOPA, L-3,4-dihydroxyphenylalanine] as the molecule, how does the “STDP LTP induction in dSPNs” value ([4]; 6-OHDA lesioned mice, slices one hour after last L-DOPA injection) read?
The value was “led to a robust LTP; also recorded: LTP was recovered”.

And the “plasticity in iSPNs with pre-post pairing protocol” value (iSPN synapses)?
The value was “induced an LTD”.

What about the forelimb use asymmetry (forelimb use asymmetry; L-DOPA alone) of the same molecule?
Its forelimb use asymmetry is 47.98±2.41.

`Cc1c(C(=O)NN2CCCCC2)nn(-c2ccc(Cl)cc2Cl)c1-c1ccc(I)cc1` [AM251] was tested. Which “LTD induction in dSPNs” value ([3]; AM251 2 μM with CNO) did it give?
Its value is “dependent upon endocannabinoid (eCB) CB 1 receptors; also recorded: LTD was blunted”.

Which results are given for `N#CC(=C(/N)Sc1ccccc1N)/C(C#N)=C(\N)Sc1ccccc1N` [U0126]?
STDP LTP induction in dSPNs ([4]; U0126 10 μM, dyskinetic (LID) mice): prevented LTP induction; also recorded: LTP was disrupted; STDP LTP induction in dSPNs ([4]; U0126 10 μM, naive mice): disrupted STDP LTP; also recorded: LTP induction was disrupted

For `Cc1cccc(C#Cc2ccccc2)n1` [MPEP], which “LTD induction in dSPNs” value ([3]; MPEP 10 μM with CCG203769) is on record?
Its value is “prevented the LTD induction; also recorded: LTD was disrupted”.

Which results are given for `C[N+]1([O-])CCN(C2=Nc3cc(Cl)ccc3Nc3ccccc32)CC1` [CNO, clozapine-N-oxide]?
ChI discharge rate, median ([5]; CNO 10 μM bath perfusion, n=5): 6.7 Hz; ChI discharge rate, range ([5]; CNO 10 μM bath perfusion, n=5): 4.2-7.8 Hz; ChI spontaneous discharge rate (in words) ([5]; CNO 10 μM, cell-attached patches): increased ChI spontaneous discharge rate; LTD induction in adjacent dSPNs ([3]; CNO 10 μM, elevated ChI activity via DREADD hM3D(q)): led to a robust LTD
